# Measured values reported in patent US20240269139A1, “COMPOUNDS FOR TARGETED PROTEIN DEGRADATION OF KINASES” (DANA-FARBER CANCER INSTITUTE, INC., priority 2020, published 2024).
# “And” between values parts separate entries of the source, which are not always exact repeats. Equal entries are not always repeated. Where two headings read alike, the source gives them in different places.
# Experiments:
# Format in all cases: cell-based
# [1] = biological target: protein kinases (human kinome) (Homo sapiens, UniProt P06239)
# [2] = biological target: protein kinases (human kinome) (Homo sapiens, UniProt P49137)
# [3] = biological target: T1, protein kinases (human kinome) (Homo sapiens, UniProt P29320)
# T1 sequence (P29320 21-983): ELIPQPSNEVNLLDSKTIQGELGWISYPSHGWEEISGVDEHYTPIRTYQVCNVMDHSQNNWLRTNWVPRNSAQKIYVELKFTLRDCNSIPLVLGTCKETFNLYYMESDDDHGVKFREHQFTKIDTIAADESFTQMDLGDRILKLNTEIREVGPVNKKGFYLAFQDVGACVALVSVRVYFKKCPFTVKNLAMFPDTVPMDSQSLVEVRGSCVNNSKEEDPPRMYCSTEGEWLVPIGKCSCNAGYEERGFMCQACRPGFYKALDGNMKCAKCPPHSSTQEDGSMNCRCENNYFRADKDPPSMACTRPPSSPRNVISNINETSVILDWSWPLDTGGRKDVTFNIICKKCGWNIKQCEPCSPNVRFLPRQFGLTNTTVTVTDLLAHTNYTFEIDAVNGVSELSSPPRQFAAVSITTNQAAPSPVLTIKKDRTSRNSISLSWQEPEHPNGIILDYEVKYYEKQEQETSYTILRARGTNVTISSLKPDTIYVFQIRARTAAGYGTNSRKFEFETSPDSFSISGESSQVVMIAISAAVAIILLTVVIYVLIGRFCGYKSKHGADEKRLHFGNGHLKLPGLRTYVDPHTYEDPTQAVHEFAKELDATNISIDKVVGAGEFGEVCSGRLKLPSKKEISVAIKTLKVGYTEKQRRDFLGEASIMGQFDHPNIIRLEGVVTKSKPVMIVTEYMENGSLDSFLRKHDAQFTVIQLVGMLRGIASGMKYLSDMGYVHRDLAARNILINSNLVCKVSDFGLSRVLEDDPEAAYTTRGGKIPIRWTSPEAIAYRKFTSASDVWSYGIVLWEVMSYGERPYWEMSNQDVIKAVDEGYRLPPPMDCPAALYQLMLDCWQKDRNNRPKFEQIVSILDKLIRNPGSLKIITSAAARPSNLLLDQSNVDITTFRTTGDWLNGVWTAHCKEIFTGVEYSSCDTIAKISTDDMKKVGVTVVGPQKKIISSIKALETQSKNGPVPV
# [4] = biological target: T2, protein kinases (human kinome) (Homo sapiens, UniProt Q13546)
# T2 sequence (Q13546 1-671): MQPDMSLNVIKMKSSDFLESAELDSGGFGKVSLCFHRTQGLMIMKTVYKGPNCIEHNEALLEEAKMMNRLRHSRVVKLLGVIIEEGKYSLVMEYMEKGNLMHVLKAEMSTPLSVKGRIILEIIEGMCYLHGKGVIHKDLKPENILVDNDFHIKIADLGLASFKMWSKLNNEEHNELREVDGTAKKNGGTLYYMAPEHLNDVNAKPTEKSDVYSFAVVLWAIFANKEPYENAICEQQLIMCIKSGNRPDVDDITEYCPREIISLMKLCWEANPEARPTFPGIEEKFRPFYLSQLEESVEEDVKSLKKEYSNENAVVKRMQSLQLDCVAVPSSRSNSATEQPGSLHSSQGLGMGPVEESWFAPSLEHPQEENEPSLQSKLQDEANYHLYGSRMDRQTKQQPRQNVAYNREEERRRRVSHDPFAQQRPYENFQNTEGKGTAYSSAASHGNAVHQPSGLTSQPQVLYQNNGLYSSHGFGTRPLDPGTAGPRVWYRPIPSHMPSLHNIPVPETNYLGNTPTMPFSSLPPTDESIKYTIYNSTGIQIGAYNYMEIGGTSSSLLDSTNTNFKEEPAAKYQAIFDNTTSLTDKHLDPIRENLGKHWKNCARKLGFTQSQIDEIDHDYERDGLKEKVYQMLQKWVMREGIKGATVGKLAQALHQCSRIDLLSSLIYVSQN
# [5] = Accession P49137, experiment wp168, direction down
# [6] = MAPKAPK2 (P49137), experiment wp168
# [7] = LCK P06239-1, experiment wp160, 4 hr
# [8] = LCK, accession P06239-1, experiment wp160, 4 hr, direction of change down
# [9] = LCK, accession P06239-1, experiment wp081, direction of change down
# Chain of protein kinases (human kinome) (Homo sapiens, UniProt P49137) (P49137 whole entry): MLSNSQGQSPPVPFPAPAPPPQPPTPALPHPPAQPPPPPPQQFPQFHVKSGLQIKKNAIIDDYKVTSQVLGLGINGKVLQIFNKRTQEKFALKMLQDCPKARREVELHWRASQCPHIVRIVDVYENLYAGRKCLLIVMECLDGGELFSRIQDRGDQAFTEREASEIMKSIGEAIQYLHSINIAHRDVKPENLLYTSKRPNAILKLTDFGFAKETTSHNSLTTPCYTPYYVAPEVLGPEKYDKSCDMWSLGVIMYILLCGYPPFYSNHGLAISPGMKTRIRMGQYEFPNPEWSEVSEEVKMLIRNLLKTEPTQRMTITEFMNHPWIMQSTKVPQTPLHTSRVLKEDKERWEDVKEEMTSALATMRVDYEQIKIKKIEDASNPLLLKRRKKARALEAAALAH
# Chain of protein kinases (human kinome) (Homo sapiens, UniProt P06239) (P06239 whole entry): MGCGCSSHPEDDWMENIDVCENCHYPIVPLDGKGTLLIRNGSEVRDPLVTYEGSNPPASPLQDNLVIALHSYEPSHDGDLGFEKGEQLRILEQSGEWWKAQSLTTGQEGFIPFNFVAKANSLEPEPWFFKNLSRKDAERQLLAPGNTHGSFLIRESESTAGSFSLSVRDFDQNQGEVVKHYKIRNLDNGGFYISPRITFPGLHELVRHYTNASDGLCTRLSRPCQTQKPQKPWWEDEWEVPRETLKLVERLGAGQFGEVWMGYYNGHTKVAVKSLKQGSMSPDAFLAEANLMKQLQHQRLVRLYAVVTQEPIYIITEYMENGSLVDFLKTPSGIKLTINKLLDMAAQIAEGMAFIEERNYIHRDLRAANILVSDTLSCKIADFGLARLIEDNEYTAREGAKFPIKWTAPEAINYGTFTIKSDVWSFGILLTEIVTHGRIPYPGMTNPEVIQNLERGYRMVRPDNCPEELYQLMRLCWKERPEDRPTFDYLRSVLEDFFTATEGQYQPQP
compound,measurement,setting,value
Cc1ccc(NC(=O)c2cccc(C(F)(F)F)c2)cc1N1Cc2cnc(Nc3ccc(N4CCN(CCCOc5cccc6c5C(=O)N(C5CCC(=O)NC5=O)C6=O)CC4)nc3)nc2N(C)C1=O (stereo not drawn) [DB0662],logFC LCK,"[1]; LCK P06239-1, experiment wp168",−0.9078
same,logFC LCK,"[1]; LCK, accession P06239-1, experiment wp168, direction of change down",−0.9078
same,logFC MAPKAPK2,[2]; [5],−0.331
same,logFC MAPKAPK2,[2]; [6],−0.331
"Cc1ccc(NC(=O)c2cccc(C(F)(F)F)c2)cc1N1Cc2cnc(Nc3ccc(N4CCN(Cc5cn(CCCCCOc6cccc7c6C(=O)N(C6CCC(=O)NC6=O)C7=O)nn5)CC4)nc3)nc2N(C)C1=O (stereo not drawn) [DB0646, N-(3-(7-((6-(4-((1-(5-((2-(2,6-Dioxopiperidin-3-yl)-1,3-dioxoisoindolin-4-yl)oxy)pentyl)-1H-1,2,3-triazol-4-yl)methyl)piperazin-1-v)pyridin-3-yl)amino)-1-methyl-2-oxo-1,4-dihydropyrimido[4,5-d]pyrimidin-3(2H)-yl)-4-methylphenyl)-3-(trifluoromethyl)benzamide]",logFC LCK,[1]; [7],−0.4575
same,logFC LCK,"[1]; LCK P06239-1, experiment wp160, 8 hr",−0.5386
same,logFC LCK,[1]; [8],−0.4575
same,logFC LCK,"[1]; LCK, accession P06239-1, experiment wp160, 8 hr, direction of change down",−0.5386
same,logFC LCK,"[1]; LCK, accession P06239, experiment wp152, direction of change down",−0.4468
same,logFC of LCK (P06239),[1]; experiment wp152,−0.4468
same,logFC EPHA3,"[3]; Accession P29320, experiment wp045, direction down",−0.5333
same,logFC EPHA3,"[3]; Accession P29320, experiment wp103, direction down",−0.3715
same,logFC EPHA3,"[3]; Accession P29320, experiment wp107, direction down",−0.4346
same,logFC EPHA3,"[3]; Accession P29320, experiment wp117, direction down",−0.3587
same,logFC EPHA3,"[3]; Accession P29320, experiment wp152, direction down",−0.3871
same,logFC EPHA3,"[3]; Accession P29320, experiment wp160, 4 hr, direction down",−0.5814
same,logFC EPHA3,"[3]; Accession P29320, experiment wp160, 8 hr, direction down",−0.5528
same,logFC EPHA3,"[3]; EPHA3 (P29320), experiment wp045",−0.5333
same,logFC EPHA3,"[3]; EPHA3 (P29320), experiment wp103",−0.3715
same,logFC EPHA3,"[3]; EPHA3 (P29320), experiment wp107",−0.4346
same,logFC EPHA3,"[3]; EPHA3 (P29320), experiment wp117",−0.3587
same,logFC EPHA3,"[3]; EPHA3 (P29320), experiment wp152",−0.3871
same,logFC EPHA3,"[3]; EPHA3 (P29320), experiment wp160, 4 hr",−0.5814
same,logFC EPHA3,"[3]; EPHA3 (P29320), experiment wp160, 8 hr",−0.5528
same,logFC MAPKAPK2,"[2]; Accession P49137, experiment wp045, direction down",−0.4334
same,logFC MAPKAPK2,"[2]; Accession P49137, experiment wp105, direction down",−0.4562
same,logFC MAPKAPK2,"[2]; Accession P49137, experiment wp107, direction down",−0.3734
same,logFC MAPKAPK2,"[2]; Accession P49137, experiment wp114, direction down",−0.4911
same,logFC MAPKAPK2,"[2]; Accession P49137, experiment wp117, direction down",−0.4333
same,logFC MAPKAPK2,"[2]; Accession P49137, experiment wp152, direction down",−0.4223
same,logFC MAPKAPK2,"[2]; Accession P49137, experiment wp160, 4 hr, direction down",−0.3444
same,logFC MAPKAPK2,"[2]; Accession P49137, experiment wp160, 8 hr, direction down",−0.6227
same,logFC MAPKAPK2,"[2]; Accession P49137, experiment wp172, direction down",−0.3294
same,logFC MAPKAPK2,"[2]; MAPKAPK2 (P49137), experiment wp045",−0.4334
same,logFC MAPKAPK2,"[2]; MAPKAPK2 (P49137), experiment wp105",−0.4562
same,logFC MAPKAPK2,"[2]; MAPKAPK2 (P49137), experiment wp107",−0.3734
same,logFC MAPKAPK2,"[2]; MAPKAPK2 (P49137), experiment wp114",−0.4911
same,logFC MAPKAPK2,"[2]; MAPKAPK2 (P49137), experiment wp117",−0.4333
same,logFC MAPKAPK2,"[2]; MAPKAPK2 (P49137), experiment wp152",−0.4223
same,logFC MAPKAPK2,"[2]; MAPKAPK2 (P49137), experiment wp160, 4 hr",−0.3444
same,logFC MAPKAPK2,"[2]; MAPKAPK2 (P49137), experiment wp160, 8 hr",−0.6227
same,logFC MAPKAPK2,"[2]; MAPKAPK2 (P49137), experiment wp172",−0.3294
same,logFC RIPK1 (Q13546),[4]; experiment wp045,−0.7115
same,logFC RIPK1 (Q13546),[4]; experiment wp103,−0.4796
same,logFC RIPK1 (Q13546),[4]; experiment wp105,−0.4233
same,logFC RIPK1 (Q13546),[4]; experiment wp107,−0.5121
same,logFC RIPK1 (Q13546),[4]; experiment wp117,−0.616
same,logFC RIPK1 (Q13546),[4]; experiment wp152,−0.5495
same,logFC RIPK1 (Q13546),"[4]; experiment wp160, 4 hr",−0.3907
same,logFC RIPK1 (Q13546),"[4]; experiment wp160, 8 hr",−0.8745
Cc1ccc(C(=O)Nc2ccc(CN3CCN(CCOCCOCCNC(=O)CNc4cccc5c4C(=O)N(C4CCC(=O)NC4=O)C5=O)CC3)c(C(F)(F)F)c2)cc1C#Cc1cnc2cccnn12 (stereo not drawn) [TL13.150],logFC LCK,"[1]; LCK P06239-1, experiment wp081",−0.7129
same,logFC LCK,[1]; [9],−0.7129
same,logFC RIPK1 (Q13546),[4]; experiment wp081,−0.667
Cn1c(=O)c(-c2c(Cl)cccc2Cl)cc2cnc(Nc3ccc(OCCNC(=O)CCCCCCNC(=O)COc4cccc5c4C(=O)N(C4CCC(=O)NC4=O)C5=O)cc3)nc21 (stereo not drawn) [SB1.G.192.1],logFC LCK,"[1]; LCK P06239-1, experiment wp081",−1.748
same,logFC LCK,[1]; [9],−1.748
same,logFC EPHA3,"[3]; Accession P29320, experiment wp071, direction down",−1.175
same,logFC EPHA3,"[3]; Accession P29320, experiment wp081, direction down",−1.027
same,logFC EPHA3,"[3]; Accession P29320, experiment wp131, direction down",−1.318
same,logFC EPHA3,"[3]; EPHA3 (P29320), experiment wp071",−1.175
same,logFC EPHA3,"[3]; EPHA3 (P29320), experiment wp081",−1.027
same,logFC EPHA3,"[3]; EPHA3 (P29320), experiment wp131",−1.318
Cc1ccc(C(=O)Nc2ccc(CN3CCN(CCCOCCOCCOCCNC(=O)COc4cccc5c4C(=O)N(C4CCC(=O)NC4=O)C5=O)CC3)c(C(F)(F)F)c2)cc1C#Cc1cnc2cccnn12 (stereo not drawn) [SB1.G.187],logFC RIPK1 (Q13546),[4]; Experiment wp172,−0.9666 and −0.9656
same,logFC RIPK1 (Q13546),[4]; experiment wp056,−1.288
same,logFC RIPK1 (Q13546),[4]; experiment wp103,−1.767
same,logFC RIPK1 (Q13546),[4]; experiment wp105,−1.141
same,logFC RIPK1 (Q13546),[4]; experiment wp107,−1.502
CC(C)S(=O)(=O)c1ccccc1Nc1nc(Nc2ccc(N3CCN(CCOCCNC(=O)CNc4cccc5c4C(=O)N(C4CCC(=O)NC4=O)C5=O)CC3)cc2)ncc1Cl (stereo not drawn) [SK.3.91],logFC LCK,"[1]; LCK P06239-1, experiment wp160, 2 hr",−0.4627
same,logFC LCK,[1]; [7],−1.173
same,logFC LCK,"[1]; LCK, accession P06239-1, experiment wp160, 2 hr, direction of change down",−0.4627
same,logFC LCK,[1]; [8],−1.173
Cc1ccc(NC(=O)c2cccc(C(F)(F)F)c2)cc1N1Cc2cnc(Nc3ccc(N4CCN(CCCCC(=O)N[C@H](C(=O)N5C[C@H](O)C[C@H]5C(=O)N[C@@H](C)c5ccc(-c6scnc6C)cc5)C(C)(C)C)CC4)nc3)nc2N(C)C1=O [DB1113],logFC EPHA3,"[3]; Accession P29320, experiment wp168, direction down",−0.4182
same,logFC EPHA3,"[3]; EPHA3 (P29320), experiment wp168",−0.4182
same,logFC MAPKAPK2,[2]; [5],−3.201
same,logFC MAPKAPK2,[2]; [6],−3.201
same,logFC RIPK1 (Q13546),[4]; experiment wp168,−1.99
